In experiment [1] the target is T1, human A2a adenosine receptor (Homo sapiens, UniProt P29274).
T1 construct: purchased PerkinElmer RB-HA2a; host or cells: HEK293
As to the kind of experiment: Ligand Binding Assay for Adenosine A2a Receptor (A2A-B). The note with it: HEK293 plasma membrane, radioligand [3H]CGS21680. Here is the method: Ligand Binding Assay for Adenosine A2a Receptor
Ligand binding assay of adenosine A2a receptor was performed using plasma membrane of HEK293 cells containing human A2a adenosine receptor (PerkinElmer, RB-HA2a) and radioligand [^3H]CGS21680 (PerkinElmer, NET 1021). Assay was set up in 96-well polypropylene plate in total volume of 200 μL by sequentially adding 20 μL 1:20 diluted membrane, 130 μL assay buffer (50 mM Tris.HCl, pH7.4 10 mM MgCl2, 1 mM EDTA) containing [^3H] CGS21680, 50 μL diluted compound (4×) or vehicle control in assay buffer. Nonspecific binding was determined by […] NECA. Reaction was carried out at room temperature for 2 hours before filtering through 96-well GF/C filter plate pre-soaked in 50 mM Tris.HCl, pH7.4 containing 0.3% polyethylenimine. Plates were then washed 5 times with cold 50 mM Tris.HCl, pH7.4, dried and sealed at the bottom. Microscintillation fluid 30 μL was added to each well and the top sealed. Plates were counted on Packard Topcount for [^3H]. Data was analyzed in Microsoft Excel and GraphPad Prism programs. (Varani, K.; Gessi, S.; Dalpiaz, A.; Borea, P. A. British Journal of Pharmacology, 1996, 117, 1693)

Experiment [2] deals with T2, human adenosine A1 receptor (Homo sapiens, UniProt P30542).
T2 construct: expressed in transfected cells; host or cells: CHO-K1
T2 sequence (P30542 1-326): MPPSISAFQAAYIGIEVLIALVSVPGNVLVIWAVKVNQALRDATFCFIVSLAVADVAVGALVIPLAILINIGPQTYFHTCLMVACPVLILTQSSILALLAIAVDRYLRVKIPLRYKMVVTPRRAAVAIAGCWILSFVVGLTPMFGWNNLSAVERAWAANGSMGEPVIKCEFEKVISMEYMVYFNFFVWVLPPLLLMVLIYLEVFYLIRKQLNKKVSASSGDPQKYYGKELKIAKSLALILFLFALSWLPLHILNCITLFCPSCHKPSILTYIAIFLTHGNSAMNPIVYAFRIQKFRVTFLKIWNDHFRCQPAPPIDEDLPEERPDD
Kind of experiment: Adenosine A1 Receptor Functional Assay (A1GAL2). It is filed as cell-based. As to conditions: CHO-K1 cells, cAMP inducible beta-galactosidase reporter, 4 nM r-PIA/1 uM Forskolin challenge. In outline:
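CHO-K1 cells expressing the receptor with a cAMP-inducible β-galactosidase reporter were preincubated with compound (11-point curves) about 15 min at room temperature, then challenged with r-PIA (4 nM)/forskolin (1 µM) for 5.5–6 h at 37 °C. Lysates were read colorimetrically at 405 nm, and IC/EC50 was obtained by curve fitting.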

For experiment [3], the target named is T3, human adenosine A2a receptor (Homo sapiens, UniProt P29274).
T3 construct: expressed in transfected cells; host or cells: CHO-K1
As to the kind of experiment: Adenosine A2a Receptor Functional Assay (A2AGAL2). It is filed as cell-based. The note with it: CHO-K1 cells, cAMP inducible beta-galactosidase reporter, 15 nM NECA agonist challenge. In outline:
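Antagonist mode in CHO-K1 cells expressing human A2a with a cAMP-inducible β-galactosidase reporter (10K cells/well, cultured 2 days). 11-point compound curves preincubated ~15 min at room temperature in Ham's F-12/0.1% BSA, then 15 nM NECA challenge, 5.5–6 h at 37 °C. Colorimetric β-gal read at 405 nm; IC/EC50 fitted.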

Structures can show the parent of a compound that is named as a salt.

T1 sequence (P29274 whole entry): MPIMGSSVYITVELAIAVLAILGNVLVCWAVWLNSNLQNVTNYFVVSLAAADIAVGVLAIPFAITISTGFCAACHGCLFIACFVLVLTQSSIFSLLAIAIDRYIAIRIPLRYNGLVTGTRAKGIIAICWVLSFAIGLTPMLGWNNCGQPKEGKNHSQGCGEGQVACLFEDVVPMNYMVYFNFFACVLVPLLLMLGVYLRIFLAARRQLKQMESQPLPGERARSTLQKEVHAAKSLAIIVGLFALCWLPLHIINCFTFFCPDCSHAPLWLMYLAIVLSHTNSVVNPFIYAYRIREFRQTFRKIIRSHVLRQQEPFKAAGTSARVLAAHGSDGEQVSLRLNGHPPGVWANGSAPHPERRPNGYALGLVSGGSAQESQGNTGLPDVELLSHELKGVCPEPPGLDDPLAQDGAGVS
T3 sequence (P29274 whole entry): as above

`CC(C)c1ccccc1-c1nc(N)c2cc(CN3CCC(F)CC3)sc2n1` [Example 79, 6-(4-Fluoro-piperidin-1-ylmethyl)-2-(2-isopropyl-phenyl)-thieno[2,3-d]pyrimidin-4-ylamine]: the Ki came to 7410 nM in experiment [1], 4470 nM in experiment [2] and 1040 nM in experiment [3].
Taken in the same sequence, the figures for `COc1cccc(-c2nc(N)c3cc(CN4CC=CCC4)sc3n2)c1` [Example 80, 6-(3,6-Dihydro-2H-pyridin-1-ylmethyl)-2-(3-methoxy-phenyl)-thieno[2,3-d]pyrimidin-4-ylamine] were 184 nM, 1080 nM and 102 nM.
Taken in the same sequence, the figures for `N#Cc1cccc(-c2nc(N)c3cc(CN4CCC(F)CC4)sc3n2)c1` [Example 82, 3-[4-Amino-6-(4-fluoro-piperidin-1-ylmethyl)-thieno[2,3-d]pyrimidin-2-yl]-benzonitrile] were 444 nM, 2950 nM and 53.8 nM.
For `N#Cc1cccc(-c2nc(N)c3cc(CN4CCSCC4)sc3n2)c1` [Example 83, 3-(4-Amino-6-thiomorpholin-4-ylmethyl-thieno[2,3-d]pyrimidin-2-yl)-benzonitrile], the Ki in experiment [1] amounted to 281 nM; in experiment [2] it was 1780 nM; in experiment [3] it was 64.9 nM.
For `COc1cccc(-c2nc(N)c3cc(CN4CCSCC4)sc3n2)c1` [Example 85, 2-(3-Methoxy-phenyl)-6-thiomorpholin-4-ylmethyl-thieno[2,3-d]pyrimidin-4-ylamine], the results for the Ki in experiment [1], in experiment [2] and in experiment [3] were 659 nM, 2960 nM and 169 nM, respectively.
Take `COc1cccc(-c2nc(N)c3cc(CN4CCCC(F)(F)C4)sc3n2)c1` [Example 86, 6-(3,3-Difluoro-piperidin-1-ylmethyl)-2-(3-methoxy-phenyl)-thieno[2,3-d]pyrimidin-4-ylamine]: the figures for the Ki in experiment [1], in experiment [2] and in experiment [3] were 242 nM, 1810 nM and 97.5 nM, respectively.
For `N#Cc1ccc(-c2nc(N)c3cc(CN4CC=CC4)sc3n2)cc1` [Example 88, 4-[4-Amino-6-(2,5-dihydro-pyrrol-1-ylmethyl)-thieno[2,3-d]pyrimidin-2-yl]-benzonitrile], the Ki amounted to 76 nM in experiment [1], 2350 nM in experiment [2] and 78.9 nM in experiment [3].
Regarding `Nc1nc(-c2ccc(Cl)o2)nc2sc(CN3CCC(F)CC3)cc12` [Example 89, 2-(5-Chloro-furan-2-yl)-6-(4-fluoro-piperidin-1-ylmethyl)-thieno[2,3-d]pyrimidin-4-ylamine hydrochloride], the results for the Ki in experiment [1], in experiment [2] and in experiment [3] were 1.9 nM, 1080 nM and 35.9 nM, respectively.
On to `Nc1nc(-c2ccc(Cl)o2)nc2sc(CN3CCCC3)cc12` [Example 90, 2-(5-Chloro-furan-2-yl)-6-pyrrolidin-1-ylmethyl-thieno[2,3-d]pyrimidin-4-ylamine hydrochloride], for which the Ki stood at 3.7 nM in experiment [1], 712 nM in experiment [2] and 22.3 nM in experiment [3].
`Nc1nc(-c2ccco2)nc2sc(CNC34CC5CC(CC(C5)C3)C4)cc12` [Example 91, 6-(Adamantan-1-ylaminomethyl)-2-furan-2-yl-thieno[2,3-d]pyrimidin-4-ylamine]: the results for the Ki in experiment [1], in experiment [2] and in experiment [3] were 15 nM, 1030 nM and 121 nM, respectively.
Taken in the same sequence, the figures for `Nc1nc(-c2ccco2)nc2sc(CN3CCC(F)CC3)cc12` [Example 92, 6-(4-Fluoro-piperidin-1-ylmethyl)-2-furan-2-yl-thieno[2,3-d]pyrimidin-4-ylamine Hydrochloride] were 12 nM, 741 nM and 18.9 nM.
Taken in the same sequence, the figures for `Nc1nc(-c2ccc(Cl)o2)nc2sc(CN3CCCCCC3)cc12` [Example 93, 6-Azepan-1-ylmethyl-2-(5-chloro-furan-2-yl)-thieno[2,3-d]pyrimidin-4-ylamine] were 1.8 nM, 1420 nM and 33.2 nM.
The matching figures for `Nc1nc(-c2ccc(Cl)o2)nc2sc(CN3CC=CCC3)cc12` [Example 95, 2-(5-Chloro-furan-2-yl)-6-(3,6-dihydro-2H-pyridin-1-ylmethyl)-thieno[2,3-d]pyrimidin-4-ylamine]: 3.4 nM, 188 nM and 10.7 nM.
In the case of `Nc1nc(C2CC2)nc2sc(CN3CC=CCC3)cc12` [Example 96, 2-Cyclopropyl-6-(3,6-dihydro-2H-pyridin-1-ylmethyl)-thieno[2,3-d]pyrimidin-4-ylamine], the Ki in experiment [1] amounted to 1620 nM; in experiment [2], 3020 nM; in experiment [3] it was 325 nM.
Consider `Nc1nc(-c2ccc(Cl)o2)nc2sc(CN3CC=CC3)cc12` [Example 97, 2-(5-Chloro-furan-2-yl)-6-(2,5-dihydro-pyrrol-1-ylmethyl)-thieno[2,3-d]pyrimidin-4-ylamine], for which the Ki in experiment [1] stood at 0.54 nM; in experiment [2], 783 nM; in experiment [3] it was 10.2 nM.
For `Nc1nc(-c2ccco2)nc2sc(CN3CC=CCC3)cc12` [Example 98, 6-(3,6-Dihydro-2H-pyridin-1-ylmethyl)-2-furan-2-yl-thieno[2,3-d]pyrimidin-4-ylamine], the figures for the Ki in experiment [1], in experiment [2] and in experiment [3] were 20.3 nM, 158 nM and 8.85 nM, respectively.
The matching figures for `Nc1nc(-c2ccnc(Cl)c2)nc2sc(CN3CCOCC3)cc12` [Example 105, 2-(2-Chloro-pyridin-4-yl)-6-morpholin-4-ylmethyl-thieno[2,3-d]pyrimidin-4-ylamine]: 934 nM, 876 nM and 123 nM.
Consider `Nc1nc(-c2ccc(C(F)F)o2)nc2sc(CN3CCOCC3)cc12` [Example 107, 2-(5-Difluoromethyl-furan-2-yl)-6-morpholin-4-ylmethyl-thieno[2,3-d]pyrimidin-4-ylamine], for which the values for the Ki in experiment [1], in experiment [2] and in experiment [3] were 66.1 nM, 2700 nM and 30.5 nM, respectively.

Values taken from US20100093702A1, “METHYLENE AMINES OF THIENO[2,3-d]PYRIMIDINE AND THEIR USE AS ADENOSINE A2a RECEPTOR ANTAGONISTS” (priority 2008, published 2010).
